Assay results taken from US20100160255A1, “SPIRO-CYCLIC COMPOUND” (Takeda Pharmaceutical Company Limited, priority 2005, published 2010).
Like-named read-outs stand apart in the source and are kept apart here.

How the values were obtained:
[1] = biological target: T1, human ACC1 (Homo sapiens, UniProt Q13085); assay: ACC1 inhibitory activity (malachite green absorbance assay, recombinant enzyme); type: biochemical
T1 construct: made in house; host or cells: SF-9 insect cells, recombinant baculovirus BAC-ACC1
Protocol: The ACC1 inhibitory activity of the compound of the present invention was evaluated by the following method.
(§1) Human ACC1 gene was cloned by PCR using human liver cDNA library (Clontech) as a template, and Primer 1 and Primer 2 shown below. Primer 1 and Primer 2 were prepared by adding recognition sequence of restriction enzymes SalI and NotI based on the information of the base sequence (Genbank Accession U19822) of human ACC1 gene.
(§2) PCR was performed using Pyrobest DNA polymerase (TAKARA BIO INC.). The obtained PCR product was cloned to pT7 Blue vector (Novagen) which was, after confirmation of the base sequence, digested with restriction enzymes SalI and NotI. The obtained DNA fragment was inserted into pFAST-BacHTc (Invitrogen) digested with restriction enzymes SalI and NotI to give expression plasmid ACC1/pFAST-BacHTc.
Using the expression plasmid and BAC-TO-BAC Baculovirus Expression System (Invitrogen), virus stock BAC-ACC1 of recombinant Baculovirus was prepared.
(§3) SF-9 cells (Invitrogen) were sown at 1×10^6 cells/mL to insect cell culture medium (1 L, Sf-900II SFM medium (Invitrogen) containing 10% fetal bovine serum (Trace), 50 mg/L gentamicin (Invitrogen) and 0.1% Pluronic F-68 (Invitrogen)), and shaking culture was performed using a 2 L volume Erlenmeyer flask at 27° C., 100 rpm.
After culturing for 24 hr, the recombinant Baculovirus BAC-ACC1 (10 mL) was added, and the mixture was further cultured for 3 days. The culture medium was centrifuged at 1000×g for 5 min to give virus-infected cells. The infected cells were washed with phosphate buffered saline (Invitrogen) and centrifuged under the same conditions, and the obtained cells were cryopreserved at −80° C.
The cryopreserved cells were thawed in ice, suspended in 25 mM HEPES buffer (100 mL, pH 7.5) containing 10% Glycerol, 0.13 M NaCl, 1 mM EDTA, 25 mM sodium β-glycerophosphate, 1 mM sodium orthovanadate, added with Complete Protease Inhibitor (Boehringer). The obtained suspension was homogenized 3 times with a Polytron homogenizer (Kinematica) at 20,000 rpm for 30 seconds. The obtained cell disrupt solution was clarified by centrifugation at 185700×g for 50 min and filtrated using a 0.45 μm filter. The filtrate was passed through a column packed with Ni-NTA Super Flow Gel (QIAGEN, 12 mL) at a flow rate of about 5 mL/min. The column was washed with buffer A (50 mM HEPES containing 0.3M NaCl, pH 7.5), further washed with buffer A containing 20 mM Imidazole, and eluted with buffer A containing 100 mM Imidazole. The eluate was concentrated with Vivaspin 20 (Vivascience) having a molecular weight cut off of 30 K. The obtained concentrate was dialyzed using Sephadex G-25 (Amersham Bioscience K.K., 358 mL) equilibrated with 50 mM HEPES (pH7.5) containing 10 mM MgCl2, 2 mM dithiothreitol, 10 mM tripotassium citrate and 0.3M NaCl. The dialysate was concentrated with Vivaspin 20 (Vivascience) having a molecular weight cut off of 30 K and the concentrate was filtered through a 0.22 μm filter to give ACC1. The obtained ACC1 was cryopreserved at −80° C.
ACC1 (0.93 mg/ml) obtained in (2) above was diluted to a concentration of 8 μg/ml with an enzyme reaction buffer (50 mM HEPES (pH7.5), 10 mM MgCl2, 10 mM tripotassium citrate, 2 mM dithiothreitol, 0.75 mg/ml fatty acid free BSA), and added to each well of a 384 well assay plate (Nunc 265196) by 10 μl. […]

[2] = biological target: T2, human ACC2 (Homo sapiens, UniProt O00763); assay: ACC2 inhibitory activity (malachite green absorbance assay, recombinant ACC2(Nd)); type: biochemical; conditions: Table 9; recombinant human ACC2(Nd), N terminal deletion; 30° C.; absorbance 620 nm; read-out: IC50 (ACC2 inhibitory activity)
T2 construct: made in house; host or cells: SF-9 insect cells, recombinant baculovirus BAC-ACC2(Nd)
T2 sequence (O00763 117-2458 limits assumed): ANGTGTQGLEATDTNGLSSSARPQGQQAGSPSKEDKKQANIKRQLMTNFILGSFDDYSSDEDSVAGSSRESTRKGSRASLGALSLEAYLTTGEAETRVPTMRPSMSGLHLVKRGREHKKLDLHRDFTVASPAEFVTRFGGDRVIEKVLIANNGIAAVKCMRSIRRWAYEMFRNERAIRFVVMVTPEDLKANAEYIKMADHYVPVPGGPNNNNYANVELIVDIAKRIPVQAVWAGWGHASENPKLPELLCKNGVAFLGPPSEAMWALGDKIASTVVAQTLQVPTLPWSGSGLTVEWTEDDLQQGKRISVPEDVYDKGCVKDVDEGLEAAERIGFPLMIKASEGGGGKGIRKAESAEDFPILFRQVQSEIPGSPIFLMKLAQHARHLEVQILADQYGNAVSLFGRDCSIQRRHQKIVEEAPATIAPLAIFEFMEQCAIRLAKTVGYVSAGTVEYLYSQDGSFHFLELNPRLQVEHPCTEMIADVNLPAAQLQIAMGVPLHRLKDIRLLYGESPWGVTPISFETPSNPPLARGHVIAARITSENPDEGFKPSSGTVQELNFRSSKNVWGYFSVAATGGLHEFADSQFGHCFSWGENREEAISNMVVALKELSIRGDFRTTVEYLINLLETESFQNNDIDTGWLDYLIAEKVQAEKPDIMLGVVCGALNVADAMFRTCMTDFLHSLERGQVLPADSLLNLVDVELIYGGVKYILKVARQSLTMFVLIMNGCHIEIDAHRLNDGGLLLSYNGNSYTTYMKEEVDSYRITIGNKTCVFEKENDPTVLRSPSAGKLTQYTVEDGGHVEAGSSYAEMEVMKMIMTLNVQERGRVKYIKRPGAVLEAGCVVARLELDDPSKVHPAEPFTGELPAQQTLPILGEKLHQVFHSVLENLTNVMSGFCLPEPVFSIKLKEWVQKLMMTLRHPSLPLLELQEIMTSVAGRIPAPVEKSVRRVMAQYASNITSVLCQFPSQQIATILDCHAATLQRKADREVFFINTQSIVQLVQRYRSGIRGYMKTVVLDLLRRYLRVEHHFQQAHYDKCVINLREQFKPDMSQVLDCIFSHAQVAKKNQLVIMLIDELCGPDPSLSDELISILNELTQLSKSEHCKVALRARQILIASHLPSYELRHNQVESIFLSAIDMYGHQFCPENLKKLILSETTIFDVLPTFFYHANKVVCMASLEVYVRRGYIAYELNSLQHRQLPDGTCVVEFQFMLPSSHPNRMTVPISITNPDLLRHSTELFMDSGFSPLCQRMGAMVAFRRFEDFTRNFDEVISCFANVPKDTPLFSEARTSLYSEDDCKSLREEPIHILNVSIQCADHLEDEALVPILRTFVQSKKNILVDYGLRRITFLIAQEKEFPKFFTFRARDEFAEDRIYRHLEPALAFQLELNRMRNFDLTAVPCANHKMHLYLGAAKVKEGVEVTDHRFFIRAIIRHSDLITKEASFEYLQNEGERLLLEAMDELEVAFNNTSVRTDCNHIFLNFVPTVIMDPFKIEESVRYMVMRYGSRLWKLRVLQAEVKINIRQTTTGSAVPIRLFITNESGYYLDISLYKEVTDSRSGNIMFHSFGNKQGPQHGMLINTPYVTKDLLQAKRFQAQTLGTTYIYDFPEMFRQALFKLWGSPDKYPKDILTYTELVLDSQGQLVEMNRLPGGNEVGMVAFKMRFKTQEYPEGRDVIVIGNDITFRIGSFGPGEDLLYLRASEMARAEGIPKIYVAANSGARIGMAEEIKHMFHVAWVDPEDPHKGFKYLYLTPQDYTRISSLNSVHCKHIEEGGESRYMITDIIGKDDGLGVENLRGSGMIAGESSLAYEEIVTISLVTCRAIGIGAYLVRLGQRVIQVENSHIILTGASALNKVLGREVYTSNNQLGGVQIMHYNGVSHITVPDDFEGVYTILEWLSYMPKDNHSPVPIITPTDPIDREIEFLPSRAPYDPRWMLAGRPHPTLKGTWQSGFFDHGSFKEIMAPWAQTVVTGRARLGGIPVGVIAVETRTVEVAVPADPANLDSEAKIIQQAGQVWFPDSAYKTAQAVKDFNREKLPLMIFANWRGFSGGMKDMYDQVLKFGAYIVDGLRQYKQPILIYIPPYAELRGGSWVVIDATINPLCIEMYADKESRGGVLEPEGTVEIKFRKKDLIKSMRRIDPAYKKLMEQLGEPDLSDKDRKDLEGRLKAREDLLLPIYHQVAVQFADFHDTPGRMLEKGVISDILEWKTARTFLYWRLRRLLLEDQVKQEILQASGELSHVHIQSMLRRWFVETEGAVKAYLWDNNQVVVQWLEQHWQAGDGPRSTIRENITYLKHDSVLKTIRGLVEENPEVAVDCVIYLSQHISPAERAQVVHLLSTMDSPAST
Protocol: The ACC2 inhibitory activity of the compound of the present invention was evaluated by the following method.
as §1, with “ACC2” for “ACC1”, “skeletal muscle” for “liver”, “XbaI” for “NotI”, “U89344)” for “U19822)”
as §2, with “XbaI.” for “NotI.”, “pFAST-BacHTa” for “pFAST-BacHTc”, “XbaI” for “NotI”, “ACC2/pFAST-BacHTa.” for “ACC1/pFAST-BacHTc.”
A plasmid for expression of ACC2 free of mitochondrial targeting sequence was prepared by PCR using the expression plasmid as a template, and Primer 3 and Primer 4 shown below.
as §2, with “AflII.” for “NotI.”, “pFAST-BacHTa” for “pFAST-BacHTc”, “AflII” for “NotI”, “ACC2mito7/pFAST-BacHTa.” for “ACC1/pFAST-BacHTc.”
Using the expression plasmid and BAC-TO-BAC Baculovirus Expression System (Invitrogen), virus stock BAC-ACC2 of recombinant Baculovirus (N terminal deletion (hereinafter Nd)) was prepared.
as §3, with “0.5×10^6” for “1×10^6”, “(2” for “(1”, “Wave Bioreactor (Wave) under the conditions of” for “2 L volume Erlenmeyer flask at”, “20 rpm, rocking angle of 6° and oxygen concentration of 30%.” for “100 rpm.”
On day 4 of the culture, 3 L of an insect cell culture medium was added, the rocking angle was set to 8°, and the cells were further cultured. On day 5 of the culture, the recombinant Baculovirus BAC-ACC2(Nd) (100 mL) was added, 5 L of the insect cell culture medium was further added, the rocking angle was set to 11°, and the cells were cultured for 3 days. The culture medium was centrifuged at 1000×g for 10 min to give virus-infected cells. The infected cells were washed with phosphate buffered saline (Invitrogen) and centrifuged under the same conditions, and the obtained cells were cryopreserved at −80° C.
The cryopreserved cells were thawed in ice, suspended in 25 mM HEPES buffer (900 mL, pH 7.5) containing 10% Glycerol, 0.13 M NaCl, 1 mM EDTA, 25 mM sodium β-glycerophosphate, 1 mM sodium orthovanadate, added with Complete Protease Inhibitor (Boehringer). The obtained suspension was homogenized 3 times with a Polytron homogenizer (Kinematica) at 20,000 rpm for 30 seconds. The obtained cell disrupt solution was clarified by centrifugation at 31000×g for 60 min and filtrated using a 0.45 μm filter. The filtrate was passed through a column packed with Ni-NTA Super Flow Gel (QIAGEN, 60 mL) at a flow rate of about 5 mL/min. The column was washed with buffer A (50 mM HEPES containing 0.3M NaCl, pH 7.5), further washed with buffer A containing 20 mM Imidazole, and eluted with buffer A containing 100 mM Imidazole. The eluate was concentrated with Vivaspin 20 (Vivascience) having a molecular weight cut off of 30 K. The obtained concentrate was dialyzed against 50 mM HEPES (pH7.5) containing 10 mM MgCl2, 2 mM dithiothreitol, 10 mM tripotassium citrate and 0.3M NaCl. The dialysate was filtered through a 0.22 μm filter to give ACC2(Nd). The obtained ACC2(Nd) was cryopreserved at −80° C. […]

[3] = Table 8, recombinant human ACC1, 30° C., absorbance 620 nm, read-out: IC50 (ACC1 inhibitory activity)
[4] = Experimental Example 3, same manner as Experimental Example 1, read-out: IC50 values (ACC1 inhibitory activity)

SMILES | IC50 [1, 3] [µM] | IC50 [2] [µM] | IC50 [1, 4] [µM]
CC(=O)c1cccc(-c2cc(C(=O)N3CCC(N4CCCC5(C4)CC(C)(C)OC5=O)CC3)cc(-c3cccnc3)c2)c1 (centres unmarked) [Example 133, 7-{1-[(3′-acetyl-5-(pyridin-3-yl)biphenyl-3-yl)carbonyl]piperidin-4-yl]-3,3-dimethyl-2-oxa-7-azaspiro[4.5]decan-1-one] | 3.3 | 0.12 | –
CCN1C(=O)CC2(CCCN(C3CCN(C(=O)c4c(NC(N)=O)sc5ccccc45)CC3)C2)C1=O (centres unmarked) [Example 340, 1-(3-{[4-(2-ethyl-1,3-dioxo-2,7-diazaspiro[4.5]dec-7-yl)piperidin-1-yl]carbonyl)-1-benzothien-2-yl)urea] | 0.13 | 0.022 | –
CCNC(=O)Nc1cnc(-c2ccccc2)cc1C(=O)N1CCC(N2CCCC3(C2)CC(C)(C)OC3=O)CC1 (centres unmarked) [Example 301, N-(4-{[4-(3,3-dimethyl-1-oxo-2-oxa-7-azaspiro[4.5]dec-7-yl)piperidin-1-yl]carbonyl}-6-phenylpyridin-3-yl)-N′-ethylurea] | 1.4 | 0.089 | –
CCN1CCC2(CCCN(C3CCN(C(=O)c4c5ccccc5cc5ccccc45)CC3)C2)C1=O (centres unmarked) [Example 1, 7-[1-(9-anthrylcarbonyl)piperidin-4-yl]-2-ethyl-2,7-diazaspiro[4.5]decan-1-one] | 1.9 | 0.14 | –
CCNC(=O)Nc1sc2ccccc2c1C(=O)N1CCC(N2CCCC3(C2)N=C(CC)N(CC)C3=O)CC1 (centres unmarked) [Example 354, N-(3-{[4-(2,3-diethyl-4-oxo-1,3,7-triazaspiro[4.5]dec-1-en-7-yl)piperidin-1-yl]carbonyl}-1-benzothien-2-yl)-N′-ethylurea] | – | – | ≤ 0.1
CCNC(=O)Nc1sc2ccccc2c1C(=O)N1CCC(N2CCCC3(C2)OC(=O)N(C(C)(C)C)C3=O)CC1 (centres unmarked) [Example 350, N-(3-{[4-(3-tert-butyl-2,4-dioxo-1-oxa-3,7-diazaspiro[4.5]dec-7-yl)piperidin-1-yl]carbonyl}-1-benzothien-2-yl)-N′-ethylurea] | – | – | ≤ 0.1
CC(C)NC(=O)Nc1sc2ccccc2c1C(=O)N1CCC(N2CCCC3(CC(=O)NC3=O)C2)CC1 (centres unmarked) [Example 397, N-(3-{[4-(1,3-dioxo-2,7-diazaspiro[4.5]dec-7-yl)piperidin-1-yl]carbonyl}-1-benzothien-2-yl)-N′-isopropylurea] | 0.22 | 0.039 | –
CCCN1CCC2(CCCN(C3CCN(C(=O)c4c(NC(N)=O)sc5ccccc45)CC3)C2)C1=O (centres unmarked) [Example 352, N-(3-{[4-(1-oxo-2-propyl-2,7-diazaspiro[4.5]dec-7-yl)piperidin-1-yl]carbonyl}-1-benzothien-2-yl)urea] | 0.29 | 0.041 | –
CNC(=O)Nc1sc2ccccc2c1C(=O)N1CCC(N2CCCC3(C2)CC(C)(C)OC3=O)CC1 (centres unmarked) [Example 324, N-(3-{[4-(3,3-dimethyl-1-oxo-2-oxa-7-azaspiro[4.5]dec-7-yl)piperidin-1-yl]carbonyl}-1-benzothien-2-yl)-N′-methylurea] | – | – | ≤ 0.1
CCNC(=O)Nc1sc2ccccc2c1C(=O)N1CCC(N2CCCC3(CC(C)N(CCO)C3=O)C2)CC1 (centres unmarked) [Example 187, 1-ethyl-3-[3-({4-[2-(2-hydroxyethyl)-3-methyl-1-oxo-2,7-diazaspiro[4.5]dec-7-yl]piperidin-1-yl}carbonyl)-1-benzothien-2-yl]urea] | – | – | ≤ 0.1
CC1(C)CC2(CCCN(C3CCN(C(=O)c4c(NC(N)=O)sc5ccccc45)CC3)C2)C(=O)O1 (centres unmarked) [Example 290, N-(3-{[4-(3,3-dimethyl-1-oxo-2-oxa-7-azaspiro[4.5]dec-7-yl)piperidin-1-yl]carbonyl}-1-benzothien-2-yl)urea] | – | – | ≤ 0.1
CCNC(=O)Nc1sc2ccccc2c1C(=O)N1CCC(N2CCNC3(C2)CC(C)(C)OC3=O)CC1 (centres unmarked) [Example 184, 1-(3-{[4-(3,3-dimethyl-1-oxo-2-oxa-6,9-diazaspiro[4.5]dec-9-yl)piperidin-1-yl]carbonyl}-1-benzothien-2-yl)-3-ethylurea] | – | – | ≤ 0.1
Cc1c(C(=O)OC(C)(C)C)sc(NC(N)=O)c1C(=O)N1CCC(N2CCCC3(C2)CC(C)(C)OC3=O)CC1 (centres unmarked) [Example 291, tert-butyl 5-[(aminocarbonyl)amino]-4-{[4-(3,3-dimethyl-1-oxo-2-oxa-7-azaspiro[4.5]dec-7-yl)piperidin-1-yl]carbonyl}-3-methylthiophene-2-carboxylate] | – | – | ≤ 0.1
CCN1C(=O)C2(CCCN(C3CCN(C(=O)c4c(NC(N)=O)sc5ccccc45)CC3)C2)N=C1C(C)C (centres unmarked) [Example 357, N-(3-{[4-(3-ethyl-2-isopropyl-4-oxo-1,3,7-triazaspiro[4.5]dec-1-en-7-yl)piperidin-1-yl]carbonyl}-1-benzothien-2-yl)urea] | – | – | ≤ 0.1
